{
  "source": "patent US20210137948A1",
  "about": "“TREATMENT OF INFECTIONS CAUSED BY NEISSERIA GONOCOCCUS USING A HALOGENATED SALICYLANILIDE” (priority 2018, published 2021)",
  "key": {"[1]": {"conditions": "via the urinary tract or by enzymatic metabolism in the liver; cited from earlier work"}, "Enterobacter cloacae": {"tested_on": "Enterobacter cloacae", "assay": "Broth microdilution MIC testing", "assay_type": "cell-based", "conditions": "Enterobacter cloacae MMX 6089, susceptible", "description": "(§1) Broth microdilution assay: Mueller Hinton II broth (MHB II, BBL, BD, catalog no. 212322; lot no. 5257869) was used for testing most aerobes.\n(§2) MIC values were determined using a broth microdilution procedure described by CLSI, see reference (1). Automated liquid handlers (Multidrop 384, Labsystems, Helsinki, Finland; Biomek 2000 and Biomek FX, Beckman Coulter, Fullerton Calif.) were used to conduct serial dilutions and liquid transfers.\n(§3) The wells in Columns 2 through 12 of two standard 96-well microdilution plates (Costar 3795, Corning Inc., Corning, N.Y.) were filled with 150 μL of diluent specific to the compound tested. Three hundred microliters of each comparator and investigational drug solution (40× or 100×) was added to one well in Column 1 of the plates. The Biomek 2000 was used to complete the serial transfers through Column 11. The wells of Column 12 contained no drug and were the organism growth control wells. These panels were the “mother plates.”\n(§4) Because drugs were prepared at either 40× or 100×, the “daughter plates” were loaded with 185-188 μL of the appropriate test media for the tested organism, using the Multidrop 384 or by hand. The daughter plates were prepared on the Biomek FX instrument, which transferred 2-5 μL of drug solution from each well of a mother plate to the corresponding well of each daughter plate in a single step. The wells of the daughter plates ultimately contained 185-188 μL of broth appropriate to the organism, 2-5 μL of drug solution, and 10 μL of bacterial inoculum prepared in broth.\n(§5) Standardized inoculum of each organism was prepared per CLSI methods, see reference (1). The inoculum for each organism was dispensed into sterile reservoirs divided by length (Beckman Coulter), and the Biomek 2000 was used to inoculate the plates. Daughter plates were placed on the Biomek 2000 work surface in reverse orientation so that inoculation took place from low to high drug concentration. The Biomek 2000 delivered 10 μL of standardized inoculum into each well. This yielded a final cell density in the daughter plates of approximately 5×10^5 CFU/mL.\n(§6) Plates were stacked 3 high, covered with a lid on the top plate, placed in plastic bags, and incubated at 35° C. for approximately 18 to 20 hr. Following incubation, the microplates were removed from the incubator and viewed from the bottom using a plate viewer. […] The MIC was read and recorded as the lowest concentration of drug that inhibited visible growth of the organism."}, "Klebsiella pneumoniae": {"tested_on": "Klebsiella pneumoniae", "assay": "Broth microdilution MIC testing", "assay_type": "cell-based", "conditions": "Klebsiella pneumoniae MMX 214/ATCC 13883, susceptible", "description": "as §1, §2, §3, §4, §5, §6"}, "Pseudomonas aeruginosa": {"tested_on": "Pseudomonas aeruginosa", "assay": "Broth microdilution MIC testing", "assay_type": "cell-based", "conditions": "Pseudomonas aeruginosa MMX 103/ATCC 27853, susceptible, QC", "description": "as §1, §2, §3, §4, §5, §6"}, "Acinetobacter baumannii": {"tested_on": "Acinetobacter baumannii", "assay": "Broth microdilution MIC testing", "assay_type": "cell-based", "conditions": "Acinetobacter baumannii MMX 1630/ATCC 19606, susceptible", "description": "as §1, §2, §3, §4, §5, §6"}, "Escherichia coli": {"tested_on": "Escherichia coli", "assay": "Broth microdilution MIC testing", "assay_type": "cell-based", "conditions": "for MIC: Escherichia coli, read-out: Minimal Inhibitory Concentration", "description": "as §1, §2, §3, §4, §5, §6"}, "[2]": {"tested_on": "Stenotrophomonas maltophila", "assay": "Broth microdilution MIC testing", "assay_type": "cell-based", "conditions": "Stenotrophomonas maltophila MMX 4746, susceptible", "description": "as §1, §2, §3, §4, §5, §6"}, "[3]": {"conditions": "cited from earlier work"}, "cats": {"tested_on": "cats", "conditions": "p.o.; cited from earlier work"}, "[4]": {"tested_on": "N. gonorrhoeae ATCC49226/MMX 683", "assay": "Agar dilution MIC assay (Example 1)", "assay_type": "cell-based, Neisseria gonorrhoeae", "description": "Neisseria gonococcus (N. gonorrhoeae) were assayed using a reference agar dilution method, see reference (2). Drug dilutions and drug-supplemented agar plates were prepared manually. Neisseria gonococcus was grown on Chocolate agar in a CO2 incubator overnight at 35° C. prior to assay. […] The MIC was read per CLSI guidelines, see reference (3)."}},
  "note": "Like-named read-outs stand apart in the source and are kept apart here.",
  "data": [
    {"smiles": "O=C(Nc1ccc([N+](=O)[O-])cc1Cl)c1cc(Cl)ccc1O", "note": "[Niclosamide, 2′,5-dichloro-4′-nitrosalicylanilide]", "values": [
      {"measurement": "clearance from the bloodstream", "setting": "[1]", "value": "quickly cleared"},
      {"measurement": "Minimal Inhibitory Concentration", "setting": "Enterobacter cloacae", "value": "> 8", "unit": "µg/mL"},
      {"measurement": "MIC", "setting": "Enterobacter cloacae; read-out: Minimal Inhibitory Concentration", "value": "> 8", "unit": "µg/mL"},
      {"measurement": "MIC", "setting": "Klebsiella pneumoniae; ATCC13883, read-out: Minimal Inhibitory Concentration", "value": "> 8", "unit": "µg/mL"},
      {"measurement": "Minimal Inhibitory Concentration", "setting": "Klebsiella pneumoniae", "value": "> 8", "unit": "µg/mL"},
      {"measurement": "MIC", "setting": "Pseudomonas aeruginosa; ATCC27853, read-out: Minimal Inhibitory Concentration", "value": "> 8", "unit": "µg/mL"},
      {"measurement": "Minimal Inhibitory Concentration", "setting": "Pseudomonas aeruginosa", "value": "> 8", "unit": "µg/mL"},
      {"measurement": "MIC", "setting": "Acinetobacter baumannii; ATCC19606, read-out: Minimal Inhibitory Concentration", "value": "> 8", "unit": "µg/mL"},
      {"measurement": "Minimal Inhibitory Concentration", "setting": "Acinetobacter baumannii", "value": "> 8", "unit": "µg/mL"},
      {"measurement": "Minimal Inhibitory Concentration", "setting": "Escherichia coli; Escherichia coli MMX 102/ATCC 25922, QC strain", "value": "> 8", "unit": "µg/mL"},
      {"measurement": "Minimal Inhibitory Concentration", "setting": "Escherichia coli; Escherichia coli MMX 120, acrAB efflux pump knockout", "value": "> 8", "unit": "µg/mL"},
      {"measurement": "MIC", "setting": "Escherichia coli; ATCC25922", "value": "> 8", "unit": "µg/mL"},
      {"measurement": "MIC", "setting": "Escherichia coli", "value": "> 8", "unit": "µg/mL"},
      {"measurement": "Minimal Inhibitory Concentration", "setting": "[2]", "value": "> 8", "unit": "µg/mL"},
      {"measurement": "MIC", "setting": "[2]; Stenotrophomonas sp. LMG 10879, read-out: Minimal Inhibitory Concentration", "value": "> 8", "unit": "µg/mL"},
      {"measurement": "solubility in water", "setting": "[3]", "value": "poorly soluble"},
      {"measurement": "LD50", "setting": "cats", "value": "> 1000", "unit": "mg/kg"},
      {"measurement": "MIC", "setting": "[4]; ATCC49226, Neisseria gonorrhoeae MMX 683/ATCC 49226, QC, read-out: Minimal Inhibitory Concentration", "value": 0.12, "unit": "µg/mL"},
      {"measurement": "Minimal Inhibitory Concentration", "setting": "[4]; Neisseria gonorrhoeae MMX 683/ATCC 49226, QC", "value": 0.12, "unit": "µg/mL"},
      {"measurement": "in vitro activity (in words)", "setting": "[4]; against N. gonococcus (N. gonorrhoeae), Example 1 conclusion", "value": "good in vitro activity"}
    ]}
  ]
}
